Where two headings read alike, the source gives them in different places.
Columns and labels:
[1] = 22-membered ring
[2] = biological target: T1, GST-tagged full-length FAK enzyme (PTK2) (Homo sapiens, UniProt Q05397); experiment: Biochemical Omnia Assay (FAK)
T1 construct: GST-tagged full-length FAK enzyme (PTK2, Invitrogen PV4085); GST; purchased Invitrogen PV4085
Outline: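 GST-tagged full-length human FAK, added at 50 nM to compound and a peptide (40 μM)/ATP (200 μM) solution, stated before mixing. Omnia peptide phosphorylation followed continuously by fluorescence increase. Duplicate points; IC50 by nonlinear fitting of linear progress-curve slopes.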

[3] = biological target: T2, FAK (Homo sapiens, UniProt Q05397); experiment: Cell-based capture ELISA for inhibition of FAK autophosphorylation [pY397] in U87MG cells
T2 construct: endogenous in cells; host or cells: U87MG glioblastoma cells (ATCC HTB-14)
T2 sequence (Q05397 whole entry): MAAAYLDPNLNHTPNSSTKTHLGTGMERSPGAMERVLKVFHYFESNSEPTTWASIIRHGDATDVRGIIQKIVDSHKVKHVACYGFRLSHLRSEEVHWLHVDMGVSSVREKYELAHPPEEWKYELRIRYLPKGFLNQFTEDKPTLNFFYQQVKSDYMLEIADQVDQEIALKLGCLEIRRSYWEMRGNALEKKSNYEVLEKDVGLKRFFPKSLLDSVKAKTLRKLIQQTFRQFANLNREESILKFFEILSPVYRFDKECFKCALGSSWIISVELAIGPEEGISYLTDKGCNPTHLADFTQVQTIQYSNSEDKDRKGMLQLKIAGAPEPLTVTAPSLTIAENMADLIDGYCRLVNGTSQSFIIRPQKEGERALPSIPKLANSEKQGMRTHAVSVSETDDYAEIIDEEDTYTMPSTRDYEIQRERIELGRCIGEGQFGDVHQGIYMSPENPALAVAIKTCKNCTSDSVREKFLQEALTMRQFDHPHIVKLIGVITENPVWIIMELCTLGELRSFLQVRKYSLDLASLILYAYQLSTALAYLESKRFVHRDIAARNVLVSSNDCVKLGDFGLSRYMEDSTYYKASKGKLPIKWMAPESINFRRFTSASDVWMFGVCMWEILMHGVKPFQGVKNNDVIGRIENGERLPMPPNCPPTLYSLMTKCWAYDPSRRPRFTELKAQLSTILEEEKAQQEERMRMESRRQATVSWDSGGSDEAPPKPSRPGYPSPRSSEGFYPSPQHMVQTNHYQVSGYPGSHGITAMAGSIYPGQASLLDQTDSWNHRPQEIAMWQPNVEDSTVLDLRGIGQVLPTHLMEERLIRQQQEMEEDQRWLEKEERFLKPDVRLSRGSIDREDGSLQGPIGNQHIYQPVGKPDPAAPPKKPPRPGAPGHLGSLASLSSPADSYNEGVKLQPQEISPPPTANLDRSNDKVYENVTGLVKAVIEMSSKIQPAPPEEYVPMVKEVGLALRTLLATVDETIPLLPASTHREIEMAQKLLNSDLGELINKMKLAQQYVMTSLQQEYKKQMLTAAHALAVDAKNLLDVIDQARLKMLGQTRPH
Outline: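 U87MG cells on fibronectin-coated plates treated with compounds for 2 h at 37° C in complete growth medium (0.6% DMSO final). Lysates captured on anti-FAK ELISA plates; pY397 detected with phospho-specific antibody, HRP and chromogen at 450 nm. Variant run with 50% (v/v) mouse or human plasma.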

[4] = from CCC[CH2][Sn]([CH2]CCC)([CH2]CCC)[c]1cn(CCCOP(=O)(Cc2ccc(Nc3ncc(C(F)(F)F)c(Nc4ccc(Br)nc4C(=O)NC)n3)c(OC)c2)OCC)nn1, cc_pd bond, 2 steps
[5] = from CCC[CH2][Sn]([CH2]CCC)([CH2]CCC)[c]1cn(CCCOP(=O)(CCC)Cc2ccc(Nc3ncc(C(F)(F)F)c(Nc4ccc(Br)nc4C(=O)NC)n3)c(OC)c2)nn1, cc_pd bond
[6] = 50% (v/v) human plasma, mean IC50, read-out: FAK Activity Mechanistic (U87MG) HP
[7] = 50% (v/v) mouse plasma, mean IC50, read-out: FAK Activity Mechanistic (U87MG) MP
[8] = no plasma present, mean IC50, read-out: FAK Activity Mechanistic (U87MG) NP
[9] = mean IC50, [ATP] = 50uM, read-out: FAK Activity Biochemical OMNIA, [ATP] = 50uM

T1 sequence (Q05397 whole entry): as above

## CCO[P@@]1(=O)Cc2ccc(c(OC)c2)Nc2ncc(C(F)(F)F)c(n2)Nc2ccc(c3c2C(=O)N(C)C3)-c2cnn(c2)CCCO1
From CCOP(=O)(O)Cc1ccc(Nc2ncc(C(F)(F)F)c(Nc3ccc(-c4cnn(CCCO)c4)c4c3C(=O)N(C)C4)n2)c(OC)c1, ester bond, PyBOP/DIPEA, 1,2-dichloroethane, 1.17 mM, 72.0 h
  ring closure, yield of all isomers: 14.1%

## CCO[P@@]1(=O)Cc2ccc(c(OC)c2)Nc2ncc(C(F)(F)F)c(n2)Nc2ccc(nc2C(=O)NC)-c2cn(nn2)CCCO1
[1]; [4]
  ring closure, isolated yield: 24%

## CCC[P@@]1(=O)Cc2ccc(c(OC)c2)Nc2ncc(C(F)(F)F)c(n2)Nc2ccc(nc2C(=O)NC)-c2cn(nn2)CCCO1 (mixture of isomers)
[1]; [5]
  ring closure, isolated yield: 19%

## CCC[P@]1(=O)Cc2ccc(c(OC)c2)Nc2ncc(C(F)(F)F)c(n2)Nc2ccc(nc2C(=O)NC)-c2cnn(c2)CCCO1 (mixture of isomers)
[1]; from CCCP(=O)(O)Cc1ccc(Nc2ncc(C(F)(F)F)c(Nc3ccc(-c4cnn(CCCO)c4)nc3C(=O)NC)n2)c(OC)c1, ester bond, DCC, 2 steps
  ring closure, isolated yield: 55%

## CCO[P@]1(=O)Cc2ccc(c(OC)c2)Nc2ncc(C(F)(F)F)c(n2)Nc2ccc(cc2C(=O)N(CC)CC)-c2cnn(c2)CCCO1 (mixture of isomers)
[1]; from CCOP(=O)(O)Cc1ccc(Nc2ncc(C(F)(F)F)c(Nc3ccc(-c4cnn(CCCO)c4)cc3C(=O)N(CC)CC)n2)c(OC)c1, ester bond, PyBOP/DIEA, DCE/DMF, 1.03 mM, 25.0 °C
  ring closure, isolated yield: 43%

## CCO[P@]1(=O)Cc2ccc(c(OC)c2)Nc2ncc(C(F)(F)F)c(n2)Nc2ccc(nc2C(=O)NC)-c2cc(C(=O)OC)n(c2)CCCO1 (mixture of isomers)
[1]; from CCOP(=O)(O)Cc1ccc(Nc2ncc(C(F)(F)F)c(Nc3ccc(-c4cc(C(=O)OC)n(CCCO)c4)nc3C(=O)NC)n2)c(OC)c1, ester bond, PyBOP/DIEA, DCE, 1.53 mM, 25.0 °C
  ring closure, isolated yield: 58%

## CCCP1(=O)Cc2ccc(c(OC)c2)Nc2ncc(C(F)(F)F)c(n2)Nc2ccc(nc2C(=O)NC)-c2cn(nn2)CCCO1 (racemic)
[5]
  ring closure, yield of all isomers: 19%

## CCCP1(=O)Cc2ccc(c(OC)c2)Nc2ncc(C(F)(F)F)c(n2)Nc2ccc(nc2C(=O)NC)-c2cnn(c2)CCCO1 (racemic)
From CCCP(=O)(O)Cc1ccc(Nc2ncc(C(F)(F)F)c(Nc3ccc(-c4cnn(CCCO)c4)nc3C(=O)NC)n2)c(OC)c1, ester bond, DCC, pyridine, 15.0 mM, 115.0 °C, 5.5 h, 2 steps
  ring closure, yield of all isomers: 55%

## CCOP1(=O)Cc2ccc(c(OC)c2)Nc2ncc(C(F)(F)F)c(n2)Nc2ccc(cc2C(=O)N(CC)CC)-c2cnn(c2)CCCO1 (racemic)
From CCOP(=O)(O)Cc1ccc(Nc2ncc(C(F)(F)F)c(Nc3ccc(-c4cnn(CCCO)c4)cc3C(=O)N(CC)CC)n2)c(OC)c1, ester bond, PyBOP/DIPEA, 1,2-dichloroethane, 1.03 mM, 25.0 °C, 24.0 h
  ring closure, yield of all isomers: 43%

## CCOP1(=O)Cc2ccc(c(OC)c2)Nc2ncc(C(F)(F)F)c(n2)Nc2ccc(nc2C(=O)NC)-c2cnn(c2)CC2(COC2)CO1 (racemic)
From CCOP(=O)(Cc1ccc(Nc2ncc(C(F)(F)F)c(Nc3ccc(Br)nc3C(=O)NC)n2)c(OC)c1)OCC1(Cn2cc(B3OC(C)(C)C(C)(C)O3)cn2)COC1, cc_pd bond, Pd(dppf)Cl2·CH2Cl2, K2CO3, 1,4-dioxane, 13.5 mM, 100.0 °C, 0.5 h
  ring closure, yield of all isomers: 43%

## CCOP1(=O)Cc2ccc(c(OC)c2)Nc2ncc(C(F)(F)F)c(n2)Nc2ccc(nc2C(=O)NC)-c2cc(C(=O)OC)n(c2)CCCO1 (racemic) [Example 38]
From CCOP(=O)(O)Cc1ccc(Nc2ncc(C(F)(F)F)c(Nc3ccc(-c4cc(C(=O)OC)n(CCCO)c4)nc3C(=O)NC)n2)c(OC)c1, ester bond, PyBOP/DIPEA, 1,2-dichloroethane, 1.53 mM, 25.0 °C, 24.0 h
  ring closure, yield of all isomers: 58%
[2]
  IC50: < 400 nM
[3]; [6]
  IC50: < 400 nM
[3]; [7]
  IC50: 400 to 4000 nM
[3]; [8]
  IC50: < 400 nM

## CCOP1(=O)Cc2ccc(c(OC)c2)Nc2ncc(C(F)(F)F)c(n2)Nc2ccc(nc2C(=O)NC)-c2cn(nn2)CCCO1 (single isomer, unassigned) [Example 64A]
[4]
  ring closure, yield of all isomers: 24%
[2]; [9]
  IC50: < 400 nM
[3]; [6]
  IC50: < 400 nM
[3]; [8]
  IC50: < 400 nM

## CNC(=O)c1nc2ccc1Nc1nc(ncc1C(F)(F)F)Nc1ccc(cc1OC)CP(=O)(C(C)C)OCCCn1cc-2cn1 (single isomer, unassigned) [Example 68A]
[2]; [9]
  IC50: < 400 nM
[3]; [6]
  IC50: 400 to 4000 nM
[3]; [7]
  IC50: 400 to 4000 nM
[3]; [8]
  IC50: < 400 nM

## CNC(=O)c1nc2ccc1Nc1nc(ncc1C(F)(F)F)Nc1ccc(cc1OC)CP(=O)(C(C)C)OCCCn1cc-2cn1 (single isomer, unassigned) [Example 68B]
[2]; [9]
  IC50: < 400 nM
[3]; [6]
  IC50: < 400 nM
[3]; [7]
  IC50: < 400 nM
[3]; [8]
  IC50: < 400 nM

## CCOP1(=O)Cc2ccc(cc2)Nc2ncc(C(F)(F)F)c(n2)Nc2ccc(nc2C(=O)NC)-c2cnn(c2)CCCCO1 (stereo not shown) [Example 16, 11-ethoxy-N-methyl-21-(trifluoromethyl)-10-oxa-4,5,17,19,23,26,29-heptaaza-11-phosphapentacyclo[22.2.2.2^13,16.1^2,5.1^18,22]dotriaconta-1(26),2(32),3,13,15,18(29),19,21,24,27,30-undecaene-25-carboxamide 11-oxide]
[2]
  IC50: < 400 nM
[3]; [6]
  IC50: < 400 nM
[3]; [8]
  IC50: < 400 nM

## CNC(=O)c1nc2ccc1Nc1nc(ncc1C(F)(F)F)Nc1ccc(cc1OC)CP(=O)(O)OCCCn1cc-2cn1 [Example 65, 10-hydroxy-14-methoxy-N-methyl-20-(trifluoromethyl)-9-oxa-4,5,16,18,22,25,28-heptaaza-10-phosphapentacyclo[21.2.2.2^12,15.1^2,5.1^17,21]hentriaconta-1(25),2(31),3,12,14,17(28),18,20,23,26,29-undecaene-24-carboxamide 10-oxide]
[2]; [9]
  IC50: < 400 nM
[3]; [6]
  IC50: > 4000 nM
[3]; [7]
  IC50: > 4000 nM
[3]; [8]
  IC50: > 4000 nM

Source: patent US9133224B2, “Macrocyclic kinase inhibitors” (OSI Pharmaceuticals, LLC, priority 2010, dated 2015)
